As a reminder, the Ki is the equilibrium dissociation constant of an inhibitor or competing ligand from its target. A higher Ki goes with weaker binding.

The assay deals with orexin-2 receptor (OX2R) (Homo sapiens (Human), UniProt O43614). In words: radioligand binding assay, OX2R. The settings on record: membranes prepared from CHO cells expressing the orexin-2 (OX2) receptor. As for the experimental part: The utility of the compounds in accordance with the present invention as orexin receptor OX1R and/or OX2R antagonists may be readily determined without undue experimentation by methodology well known in the art, including the “FLIPR Ca^2+ Flux Assay” (Okumura et al., Biochem. Biophys. Res. Comm. 280:976-981, 2001). In a typical experiment the OX1 and OX2 receptor antagonistic activity of the compounds of the present invention was determined in accordance with the following experimental method. For intracellular calcium measurements, Chinese hamster ovary (CHO) cells expressing the rat OX1 receptor or the human OX2 receptor, are grown in Iscove's modified DMEM containing 2 mM L-glutamine, […], 1% hypoxanthine-thymidine supplement, 100 U/ml penicillin, 100 ug/ml streptomycin and 10% heat-inactivated fetal calf serum (FCS). The cells are seeded at 20,000 cells/well into Becton-Dickinson black 384-well clear bottom sterile plates coated with poly-D-lysine. All reagents were from GIBCO-Invitrogen Corp. The seeded plates are incubated overnight at 37° C. and 5% CO2. Ala-6,12 human orexin-A as the agonist is prepared as a 1 mM stock solution in 1% bovine serum albumin (BSA) and diluted in assay buffer (HBSS containing 20 mM HEPES, 0.1% BSA and 2.5 mM probenecid, pH7.4) for use in the assay at a final concentration of 70 pM. Test compounds are prepared as 10 mM stock solution in DMSO, then diluted in 384-well plates, first in DMSO, then assay buffer. On the day of the assay, cells are washed 3 times with 100 ul assay buffer and then incubated for 60 min (37° C., 5% CO2) in 60 ul assay buffer containing 1 uM Fluo-4AM ester, 0.02% pluronic acid, and 1% BSA. The dye loading solution is then aspirated and cells are washed 3 times with 100 ul assay buffer. 30 ul of that same buffer is left in each well. Within the Fluorescent Imaging Plate Reader (FLIPR, Molecular Devices), test compounds are added to the plate in a volume of 25 ul, incubated for 5 min and finally 25 ul of agonist is added. Fluorescence is measured for each well at 1 second intervals for 5 minutes and the height of each fluorescence peak is compared to the height of the fluorescence peak induced by 70 pM Ala-6,12 orexin-A with buffer in place of antagonist. For each antagonist, IC50 value (the concentration of compound needed to inhibit 50% of the agonist response) is determined. Alternatively, compound potency can be assessed by a radioligand binding assay (described in Bergman et. al. Bioorg. Med. Chem. Lett. 2008, 18, 1425-1430) in which the inhibition constant (Ki) is determined in membranes prepared from CHO cells expressing either the orexin-1 (OX1) or orexin-2 (OX2) receptor. The intrinsic orexin receptor antagonist activity of a compound which may be used in the present invention may be determined by these assays.
Chain of orexin-2 receptor (OX2R) (O43614 whole entry): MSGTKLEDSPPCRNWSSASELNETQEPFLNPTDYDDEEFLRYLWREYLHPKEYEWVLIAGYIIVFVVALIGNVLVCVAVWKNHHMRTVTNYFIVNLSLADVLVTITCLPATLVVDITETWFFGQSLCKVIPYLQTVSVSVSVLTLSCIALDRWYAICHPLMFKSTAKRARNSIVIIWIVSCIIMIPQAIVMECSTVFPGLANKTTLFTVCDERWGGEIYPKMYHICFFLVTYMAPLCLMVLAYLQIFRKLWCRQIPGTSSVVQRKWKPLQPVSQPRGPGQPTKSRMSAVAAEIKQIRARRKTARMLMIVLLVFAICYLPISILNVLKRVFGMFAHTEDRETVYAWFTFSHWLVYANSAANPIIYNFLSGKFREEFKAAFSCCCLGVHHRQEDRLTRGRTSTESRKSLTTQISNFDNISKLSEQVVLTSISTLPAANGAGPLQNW

The compound `Cc1ccc(-n2nccn2)c(C(=O)N2CCCCC(COc3ccc(F)c(C)c3)C2)c1` (stereo not drawn) [1-8, 3-[(4-Fluoro-3-methylphenoxy)methyl]-1-[5-methyl-2-(2H-1,2,3-triazol-2-yl)benzoyl]azepane] yielded an inhibition constant (Ki) of 7.9 nM.

The compound `Cc1ccc(-n2nccn2)c(C(=O)N2CC(COc3ccc(F)c(C)c3)CCCC2C)c1` (stereo not drawn) [2-8, 6-[(4-fluoro-3-methylphenoxy)methyl]-2-methyl-1-[5-methyl-2-(2H-1,2,3-triazol-2-yl)benzoyl]azepane] yielded an inhibition constant Ki of 3.3 nM.

`Cc1cc(OCC2CCCC(C)N(C(=O)c3ccccc3-n3nccn3)C2)ccc1F` (stereo not drawn) [2-9, 6-[(4-fluoro-3-methylphenoxy)methyl]-2-methyl-1-[2-(2H-1,2,3-triazol-2-yl)benzoyl]azepane] yielded an inhibitory constant (Ki) of 10 nM.

Compound `Cc1ccc(-n2nccn2)c(C(=O)N2CC(COc3ccc(F)cn3)CCCC2C)c1` (stereo not drawn) [2-10, 6-{[(5-fluoropyridin-2-yl)oxy]methyl}-2-methyl-1-[5-methyl-2-(2H-1,2,3-triazol-2-yl)benzoyl]azepane] registered an inhibition constant Ki of 9.7 nM. The result for `CC1CCCC(COc2ccc(F)cn2)CN1C(=O)c1ccccc1-n1nccn1` (stereo not drawn) [2-11, 6-{[(5-fluoropyridin-2-yl)oxy]methyl}-2-methyl-1-[2-(2H-1,2,3-triazol-2-yl)benzoyl]azepane] reads 28 nM; that for `Cc1ccc(-c2nccs2)c(C(=O)N2CC(COc3ccc(F)c(C)c3)CCCC2C)c1` (stereo not drawn) [3-2, 6-[(4-fluoro-3-methylphenoxy)methyl]-2-methyl-1-[5-methyl-2-(1,3-thiazol-2-yl)benzoyl]azepane], 4.2 nM; that for `Cc1ccc(-c2ncccn2)c(C(=O)N2CC(COc3ccc(F)c(C)c3)CCCC2C)c1` (stereo not drawn) [3-3, 6-[(4-fluoro-3-methylphenoxy)methyl]-2-methyl-1-(5-methyl-2-pyrimidin-2-ylbenzoyl)azepane], 10 nM.

`Cc1ccc(-c2ncco2)c(C(=O)N2CC(COc3ccc(F)cn3)CCCC2C)c1` (stereo not drawn) [3-4, 6-{[(5-fluoropyridin-2-yl)oxy]methyl}-2-methyl-1-[5-methyl-2-(1,3-oxazol-2-yl)benzoyl]azepane] showed a Ki of 13 nM. Then `Cc1ccc(-c2nccs2)c(C(=O)N2CC(COc3ccc(F)cn3)CCCC2C)c1` (stereo not drawn) [3-5, 6-{[(5-fluoropyridin-2-yl)oxy]methyl}-2-methyl-1-[5-methyl-2-(1,3-thiazol-2-yl)benzoyl]azepane], with 3.8 nM; and `Cc1ccc(-c2ncccn2)c(C(=O)N2CC(COc3ccc(F)cn3)CCCC2C)c1` (stereo not drawn) [3-6, 6-{[(5-fluoropyridin-2-yl)oxy]methyl}-2-methyl-1-(5-methyl-2-pyrimidin-2-ylbenzoyl)azepane], with 14 nM; and `Cc1ccc(-n2nccn2)c(C(=O)N2CC(COc3ccc(F)c(C)c3)COCC2C)c1` (stereo not drawn) [4-8, 6-[(4-fluoro-3-methylphenoxy)methyl]-3-methyl-4-[5-methyl-2-(2H-1,2,3-triazol-2-yl)benzoyl]-1,4-oxazepane], with 8.7 nM. `Cc1cc(OCC2COCC(C)N(C(=O)c3ccccc3-n3nccn3)C2)ccc1F` (stereo not drawn) [4-9, 6-[(4-fluoro-3-methylphenoxy)methyl]-3-methyl-4-[2-(2H-1,2,3-triazol-2-yl)benzoyl]-1,4-oxazepane] showed a Ki of 11 nM.
